According to PubChem BioAssay AID248 (DTP/NCI, 2004):
Values joined by “and” are separate entries in the source; they are usually repeats but may differ in a detail not shown here. Equal entries are not always repeated. Inconclusive results and toxic doses are left out. No stated cut-off is given here; in the data, active means T/C of 150% or more; inactive means T/C below 125%.

Tested on: L1210 leukemia ip in BDF1 mice, survival T/C
Test: NCI In Vivo Anticancer Drug Screen. Data for tumor model L1210 Leukemia (intraperitoneal) in B6D2F1 (BDF1) mice
Conditions: endpoint: mean survival time, higher = longer survival
Procedure, shortened: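 Each compound was tested against a transplantable tumor grown in mice. The endpoint was survival, with treated animals benchmarked against vehicle controls as a simple ratio.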

[1] = dose: 25.0 mg/kg/injection, schedule: Q01DX009 (ip), vehicle: saline with Tween-80
[2] = dose: 50.0 mg/kg/injection, schedule: Q01DX009 (ip), vehicle: saline with Tween-80
[3] = dose: 100.0 mg/kg/injection, schedule: Q04DX003 (ip), vehicle: saline with Tween-80
[4] = dose: 25.0 mg/kg/injection, schedule: Q01DX009 (ip), vehicle: saline
[5] = dose: 50.0 mg/kg/injection, schedule: Q01DX009 (ip), vehicle: saline
[6] = dose: 100.0 mg/kg/injection, schedule: Q01DX009 (ip), vehicle: saline
[7] = dose: 100.0 mg/kg/injection, schedule: Q04DX003 (ip), vehicle: saline
[8] = dose: 200.0 mg/kg/injection, schedule: Q04DX003 (ip), vehicle: saline
[9] = dose: 100.0 mg/kg/injection, schedule: Q01DX001 (ip), vehicle: carboxymethylcellulose (CMC)
[10] = dose: 200.0 mg/kg/injection, schedule: Q01DX001 (ip), vehicle: carboxymethylcellulose (CMC)
[11] = dose: 400.0 mg/kg/injection, schedule: Q01DX001 (ip), vehicle: carboxymethylcellulose (CMC)
[12] = dose: 100.0 mg/kg/injection, schedule: Q01DX009 (ip), vehicle: Klucel (hydroxypropylcellulose) (HPC)
[13] = dose: 200.0 mg/kg/injection, schedule: Q01DX009 (ip), vehicle: Klucel (hydroxypropylcellulose) (HPC)
[14] = dose: 50.0 mg/kg/injection, schedule: Q01DX009 (ip), vehicle: Klucel (hydroxypropylcellulose) (HPC)
[15] = dose: 100.0 mg/kg/injection, schedule: Q04DX003 (ip), vehicle: Klucel (hydroxypropylcellulose) (HPC)
[16] = dose: 200.0 mg/kg/injection, schedule: Q04DX003 (ip), vehicle: Klucel (hydroxypropylcellulose) (HPC)
[17] = dose: 25.0 mg/kg/injection, schedule: Q01DX009 (ip), vehicle: Klucel (hydroxypropylcellulose) (HPC)

Measured: T/C

CNC(=O)NC1CC(OC2CC(O)(C(C)=O)Cc3c(O)c4c(c(O)c32)C(=O)c2c(OC)cccc2C4=O)OC(C)C1O (stereo not given)
inactive: dose: 2.0 mg/kg/injection, schedule: Q04DX003 (ip), vehicle: water 103 % of control | dose: 3.12 mg/kg/injection, schedule: Q01DX009 (ip), vehicle: saline with Tween-80 108 % of control | dose: 4.0 mg/kg/injection, schedule: Q04DX003 (ip), vehicle: water 98 % of control | dose: 6.25 mg/kg/injection, schedule: Q01DX009 (ip), vehicle: saline with Tween-80 97 % of control | dose: 8.0 mg/kg/injection, schedule: Q04DX003 (ip), vehicle: water 107 % of control | dose: 12.5 mg/kg/injection, schedule: Q01DX009 (ip), vehicle: saline with Tween-80 103 % of control | dose: 12.5 mg/kg/injection, schedule: Q04DX003 (ip), vehicle: saline with Tween-80 100 % of control | dose: 16.0 mg/kg/injection, schedule: Q04DX003 (ip), vehicle: water 95 % of control and 103 % of control | [1] 112 % of control | dose: 25.0 mg/kg/injection, schedule: Q04DX003 (ip), vehicle: saline with Tween-80 100 % of control | dose: 32.0 mg/kg/injection, schedule: Q04DX003 (ip), vehicle: water 100 % of control | [2] 111 % of control | dose: 50.0 mg/kg/injection, schedule: Q04DX003 (ip), vehicle: saline with Tween-80 100 % of control | dose: 64.0 mg/kg/injection, schedule: Q04DX003 (ip), vehicle: water 104 % of control | [3] 100 % of control | dose: 125.0 micrograms/kg/injection, schedule: Q04DX003 (ip), vehicle: water 104 % of control | dose: 250.0 micrograms/kg/injection, schedule: Q04DX003 (ip), vehicle: water 104 % of control | dose: 500.0 micrograms/kg/injection, schedule: Q04DX003 (ip), vehicle: water 105 % of control | dose: 1000.0 micrograms/kg/injection, schedule: Q04DX003 (ip), vehicle: water 104 % of control | dose: 2000.0 micrograms/kg/injection, schedule: Q04DX003 (ip), vehicle: water 101 % of control

NC1Cc2ccccc2C1
inactive: dose: 12.5 mg/kg/injection, schedule: Q01DX009 (ip), vehicle: saline 98 % of control | [4] 110 % of control and 93 % of control | dose: 25.0 mg/kg/injection, schedule: Q04DX003 (ip), vehicle: saline 104 % of control | [5] 92 % of control and 95 % of control | dose: 50.0 mg/kg/injection, schedule: Q04DX003 (ip), vehicle: saline 109 % of control | [6] 106 % of control and 92 % of control | [7] 96 % of control | [8] 92 % of control

O=C1/C(=C/c2ccco2)CCC/C1=C\c1ccco1
inactive: dose: 100.0 mg/kg/injection, schedule: Q01DX001 (ip), vehicle: acetone 95 % of control | dose: 100.0 mg/kg/injection, schedule: Q04DX002 (ip), vehicle: saline with Tween-80 92 % of control | dose: 200.0 mg/kg/injection, schedule: Q01DX001 (ip), vehicle: acetone 87 % of control | dose: 200.0 mg/kg/injection, schedule: Q04DX002 (ip), vehicle: saline with Tween-80 95 % of control | dose: 400.0 mg/kg/injection, schedule: Q01DX001 (ip), vehicle: acetone 97 % of control | dose: 400.0 mg/kg/injection, schedule: Q04DX002 (ip), vehicle: saline with Tween-80 98 % of control

COCC(=O)Nc1ccc(Cl)c(Cl)c1
inactive: [9] 100 % of control | [10] 92 % of control | [11] 97 % of control

ICC1CCC(CI)CC1 (stereo not given)
inactive: [9] 102 % of control | [10] 102 % of control | [11] 102 % of control

Cc1ccc(N=Nc2ccc(C)cc2NC(=O)c2cccc3ccccc23)cc1
inactive: [12] 92 % of control | dose: 100.0 mg/kg/injection, schedule: Q04DX002 (ip), vehicle: Klucel (hydroxypropylcellulose) (HPC) 104 % of control | [13] 100 % of control | dose: 200.0 mg/kg/injection, schedule: Q04DX002 (ip), vehicle: Klucel (hydroxypropylcellulose) (HPC) 96 % of control | dose: 400.0 mg/kg/injection, schedule: Q01DX009 (ip), vehicle: Klucel (hydroxypropylcellulose) (HPC) 95 % of control | dose: 400.0 mg/kg/injection, schedule: Q04DX002 (ip), vehicle: Klucel (hydroxypropylcellulose) (HPC) 93 % of control

O=C1c2ccccc2-c2ccc(Br)c3cccc1c23
inactive: [14] 93 % of control | dose: 50.0 mg/kg/injection, schedule: Q04DX003 (ip), vehicle: Klucel (hydroxypropylcellulose) (HPC) 100 % of control | [12] 91 % of control | [15] 95 % of control | [13] 91 % of control | [16] 100 % of control

CCOC(=O)C1=C(C)N(Cc2ccccc2)C(C)=C(C(=O)OCC)C1(C)C
inactive: [3] 101 % of control | dose: 200.0 mg/kg/injection, schedule: Q04DX003 (ip), vehicle: saline with Tween-80 98 % of control | dose: 400.0 mg/kg/injection, schedule: Q04DX003 (ip), vehicle: saline with Tween-80 106 % of control

Nc1cc(C(F)(F)F)ccc1Cl
inactive: dose: 100.0 mg/kg/injection, schedule: Q04DX003 (ip), vehicle: alcohol 100 % of control | dose: 200.0 mg/kg/injection, schedule: Q04DX003 (ip), vehicle: alcohol 96 % of control | dose: 400.0 mg/kg/injection, schedule: Q04DX003 (ip), vehicle: alcohol 97 % of control

Cc1ccc(-n2c(=S)[nH]c3ccccc3c2=O)cc1
inactive: [1] 92 % of control | [2] 90 % of control | dose: 100.0 mg/kg/injection, schedule: Q01DX009 (ip), vehicle: saline with Tween-80 87 % of control

COc1ccc(/C=N/NC(=O)c2ccc(OC)cc2)cc1
inactive: [15] 101 % of control | [16] 90 % of control | dose: 400.0 mg/kg/injection, schedule: Q04DX003 (ip), vehicle: Klucel (hydroxypropylcellulose) (HPC) 92 % of control

CC1(C)N=C(N)N=C(N)N1NC(=O)c1cccc(Cl)c1
inactive: [7] 101 % of control | [8] 94 % of control

NC1CCC(CC2CCCCCC2)CC1 (stereo not given)
inactive: dose: 6.25 mg/kg/injection, schedule: Q01DX009 (ip), vehicle: Klucel (hydroxypropylcellulose) (HPC) 107 % of control | dose: 12.5 mg/kg/injection, schedule: Q01DX009 (ip), vehicle: Klucel (hydroxypropylcellulose) (HPC) 100 % of control | [17] 97 % of control and 98 % of control

O=C1OCCS1
inactive: [4] 107 % of control | [5] 104 % of control | [6] 101 % of control and 105 % of control

N#CCN1CCCN(CC#N)C1
inactive: [17] 96 % of control | [14] 115 % of control | [12] 88 % of control and 91 % of control | [15] 92 % of control | [16] 103 % of control

CCCOCCOCCOC(C)Oc1cc(OC)ccc1OC (stereo not given)
inactive: dose: 100.0 mg/kg/injection, schedule: Q04DX002 (ip), vehicle: saline 93 % of control | dose: 200.0 mg/kg/injection, schedule: Q04DX002 (ip), vehicle: saline 111 % of control | dose: 400.0 mg/kg/injection, schedule: Q04DX002 (ip), vehicle: saline 96 % of control
